This passage reports EC50 results from PubChem BioAssay AID489024 (Sanford-Burnham Center for Chemical Genomics, 2010).

The source made the active and inactive calls.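 The calls were made as follows: active = compounds whose mean EC50, the dose giving half the maximal reporter activation, is at or below a set limit; inactive = the rest.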 Some results are limits rather than exact numbers.

In the assay the target is CHO-CHOP luciferase reporter, UPR activation, luminescence. Description: CHOP reporter induction, apoptotic UPR branch – CHO-CHOP cells, luciferase luminescence, confirmation (AID 489024).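 Also: compounds added alone to reporter cells with no tunicamycin stress co-treatment.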
The term EC50 denotes the midpoint of the concentration-response curve. With `Cc1ccc2nc(-c3ccc(NC(=S)NC4CC(C)(C)NC(C)(C)C4)cc3)sc2c1`, the concentration for a half-maximal effect (EC50) was 6.95 µM.
The same measure for `C/C(=N\NC(=O)c1ccc(Cl)cc1)c1ccccn1`: 8.06 µM; for `OCCNc1nc(Nc2ccc(Br)cc2)nc2ccccc12`: 8.18 µM.
The same measure for `CCOC(=O)C(=Cc1ccc(-n2ccnc2)cc1)C(=O)OCC`: 9.57 µM; for `S=C1SCN(CCN2CCOCC2)CN1Cc1ccccc1`: 10.8 µM; for `COc1cc(C(=O)Nc2nc(-c3ccc(Cl)cc3)c(C)s2)ccc1OCC(=O)Nc1ccc(F)cc1`: 13.3 µM.
On to `O=S(=O)(c1ccc(Cl)cc1)c1snnc1-c1ccccc1`, for which the EC50 is 11.1 µM.
The same measure for `COc1ccc(OC)c(N=Cc2c(O)c3ccccc3oc2=O)c1`: 7.55 µM.
With `O=c1cc(C(Cl)(Cl)Cl)oc2c1ccc1ccccc12` the figure was > 80 µM (inactive); with `Cc1ccccc1S(=O)(=O)NC1OC(=O)C(Cl)=C1Cl` (centres undefined), > 80 µM (inactive).
With `COc1ccc(N=c2oc3ccc(OC)cc3cc2-c2nc3ccccc3[nH]2)cc1` the figure was 11.7 µM.
As for `Cc1cccc(C)c1NC(=O)c1nc(S(=O)(=O)Cc2ccccc2)ncc1Cl`, the concentration giving a half-maximal response (EC50) was 12.3 µM.
The same measure for `CC(NC(=O)CN(c1cccc(C(F)(F)F)c1)S(=O)(=O)c1ccc(Cl)c([N+](=O)[O-])c1)c1ccccc1` (centres undefined): 8.07 µM; for `Cc1ccc(C)c(C(=O)Cn2ncc(Cl)c(Cl)c2=O)c1`: 10.8 µM.
With `COc1cc2nc(=S)n3[nH]c(CCn4nc(C)cc4C)nc3c2cc1OC`, the EC50 is 3.93 µM.
For `Cc1ccc2cccc(NS(=O)(=O)c3ccccc3)c2n1`, the half-maximal effective concentration (EC50) is 3.53 µM.
With `S=C1SCN(CC2CC2)CN1CC1CC1` the entry was “inactive”.
The same measure for `O=C(NCCc1ccccc1)c1coc(=O)c(Br)c1`: 7.83 µM; for `CCOc1ccc(NC(=S)NC(=O)/C=C/c2ccc(OC)c(OC)c2)c([N+](=O)[O-])c1`: > 80 µM (inactive).
The same measure for `O=C(Nc1cccc(-c2nc3cccnc3s2)c1)C1c2ccccc2Oc2ccccc21`: 6.89 µM; for `Cc1nc(NC(=O)/C=C/c2ccccc2)n[nH]1`: > 80 µM (inactive).
As to `C/C(=N\NC(=O)c1cc2ccccc2cc1O)c1ccccn1`, the EC50 was 3.71 µM.
The same measure for `Cc1cc(C(=O)CCl)c(C)n1CCc1ccc(Cl)cc1`: 7.15 µM; for `Clc1ccc(-n2nnnc2Sc2ncnc3sccc23)cc1`: > 80 µM (inactive); for `COc1cc(NC(=O)c2cncc(-c3ccc(C#N)cc3)c2)cc(C(=O)Nc2cccc(C(F)(F)F)c2)c1`: “inactive”.
Turning to `Cc1cc(NC(=O)CCS(=O)(=O)c2nc(-c3ccccc3)cc(C(F)(F)F)n2)no1`, the EC50 is 7.4 µM.
With `O=[N+]([O-])c1ccc(Sc2cccc3cccnc23)c([N+](=O)[O-])c1` the figure was > 80 µM (inactive); with `Cc1cccc(CS(=O)(=O)c2ncc(Cl)c(C(=O)Nc3ccc(F)cc3)n2)c1`, 9.1 µM.
For `O=C1/C(=C/c2ccccc2[N+](=O)[O-])COc2ccccc21`, the EC50 is 6.15 µM.
The same measure for `Cn1c(=O)c2c(SCC(=O)Nc3ccccc3F)nc(-c3ccccc3F)nc2n(C)c1=O`: 12.6 µM; for `COCc1ccc(O)c2ncccc12`: 15.1 µM; for `Oc1ccc(-c2csc(-c3ccccc3)n2)cc1O`: 5.57 µM.
`CCCCNC1C(CC)C(CCC)C(C#N)(C#N)C1(C#N)C#N` (centres undefined): the EC50 was > 80 µM (inactive).
With `COc1ccc2cc(C)c3nnc(SCC(=O)Nc4nc(-c5ccc(F)cc5)cs4)n3c2c1` the figure was 10.7 µM; with `COc1ccc(/C=N/Nc2cc(C)nc(-n3nc(C)cc3C)n2)cc1`, 10.4 µM.
Consider `Cc1nc([N+](=O)[O-])c(Br)n1CC(=O)c1ccc2ccccc2c1`, for which the EC50 was > 80 µM (inactive).
With `Oc1ccc(CN2CCc3ccccc3C2)c2cccnc12` the figure was 13.8 µM; with `COC(=O)c1cc(=O)n(CCc2ccc(OC)c(OC)c2)c(=Nc2ccc(F)c(Cl)c2)s1`, 16.9 µM.
With `C=CCNC(=S)N/N=C(\C)c1ccccn1` the figure was 2.5 µM.
